Data published in US12234224B2, “Pyrimidine and pyridine amine compounds and usage thereof in disease treatment” (Epigen Biosciences, Inc., priority 2021, dated 2025).

molecular target: T1, Recombinant human p70S6K kinase (Homo sapiens, UniProt P23443); assay: S6K Enzymatic Inhibition Assay (HotSpot kinase assay; called S6K binding assay in Table 2); type: biochemical; settings: IC50 class
T1 construct: purchased ThermoFisher Scientific PV3815
Experimental: Enzymatic activity was determined using a commercial HotSpot kinase assay. Recombinant human p70S6K kinase was purchased from ThermoFisher Scientific (cat #PV3815). The substrate S6K/RSK2 peptide 2 was synthesized at Genscript [Piscataway, NJ]. In brief, the substrate was prepared in the reaction buffer [20 mM Hepes (pH 7.5), 10 mM MgCl2, 1 mM EGTA, 0.02% Brij35, 0.02 mg/mL BSA, 0.1 mM Na3VO4, 2 mM DTT, 1% DMSO]. Testing compounds were dissolved in 100% DMSO and a serial dilution was conducted in DMSO. The kinase at final concentration of 3 nM was added into the substrate solution and gently mixed. Test compounds were delivered at the appropriate concentrations into the kinase reaction mixture by Echo550, and incubated for 20 minutes at room temperature. ^33P-ATP (Specific activity 10 μCi/μL) was added into the reaction mixture to initiate the reaction. Assay plates were incubated for 2 hours at room temperature. The radioactivity was detected by filter-binding method. Kinase activity data is expressed as the percent remaining kinase activity in test samples compared to vehicle (DMSO) reactions. IC50 curves were plotted and IC50 values were calculated using the GraphPad Prism 4 program based on a sigmoidal dose-response equation.

T1 sequence (P23443 whole entry): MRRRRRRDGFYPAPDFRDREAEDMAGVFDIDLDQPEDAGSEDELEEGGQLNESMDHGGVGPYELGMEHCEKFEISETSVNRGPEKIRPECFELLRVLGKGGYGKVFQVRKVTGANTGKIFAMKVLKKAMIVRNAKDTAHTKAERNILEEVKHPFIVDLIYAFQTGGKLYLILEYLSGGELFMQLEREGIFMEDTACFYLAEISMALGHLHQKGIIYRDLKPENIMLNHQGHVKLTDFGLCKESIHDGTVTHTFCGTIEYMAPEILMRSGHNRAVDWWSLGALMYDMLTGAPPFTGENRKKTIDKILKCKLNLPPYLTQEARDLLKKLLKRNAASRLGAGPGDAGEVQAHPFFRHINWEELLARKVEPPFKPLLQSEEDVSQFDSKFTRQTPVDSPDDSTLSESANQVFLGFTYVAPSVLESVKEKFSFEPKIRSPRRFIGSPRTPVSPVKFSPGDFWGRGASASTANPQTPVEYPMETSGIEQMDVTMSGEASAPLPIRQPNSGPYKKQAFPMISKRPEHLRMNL

| Structure (SMILES) | IC50 [nM] |
| --- | --- |
| COc1ccc(-c2c(N)ncnc2-c2cnn(Cc3ccc(C(F)(F)F)cc3)c2)cc1Cl [Example 30, 5-(3-Chloro-4-methoxyphenyl)-6-(1-{[p-(trifluoromethyl)phenyl]methyl}-1H-pyrazol-4-yl)-4-pyrimidinylamine] | 500 to 10000 |
| COc1cc(-c2c(N)ncnc2-c2cnn(Cc3ccc(C(F)(F)F)cc3)c2)ccc1F [Example 33, 5-(4-Fluoro-3-methoxyphenyl)-6-(1-{[p-(trifluoromethyl)phenyl]methyl}-1H-pyrazol-4-yl)-4-pyrimidinylamine] | 500 to 10000 |
| Nc1ncnc(-c2cnn(Cc3ccc(C(F)(F)F)cc3)c2)c1-c1ccc(OC(F)(F)F)cc1 [Example 34, 5-(p-Trifluoromethoxyphenyl)-6-(1-{[p-(trifluoromethyl)phenyl]methyl}-1H-pyrazol-4-yl)-4-pyrimidinylamine] | 500 to 10000 |
| Nc1ncnc(-c2cnn(Cc3ccc(C(F)(F)F)cc3)c2)c1-c1ccc2c(c1)OC(F)(F)O2 [Example 35, 5-(2,2-Difluoro-2H-1,3-benzodioxol-5-yl)-6-(1-{[p-(trifluoromethyl)phenyl]methyl}-1H-pyrazol-4-yl)-4-pyrimidinylamine] | 500 to 10000 |
| COc1ccc(-c2c(-c3cnn(Cc4ccc(C(F)(F)F)cc4)c3)ccnc2N)cc1 [Example 38, 3-(p-Methoxyphenyl)-4-(1-{[p-(trifluoromethyl)phenyl]methyl}-1H-pyrazol-4-yl)-2-pyridylamine] | < 50 |
| Nc1nccc(-c2cnn(Cc3ccc(C(F)(F)F)cc3)c2)c1-c1ccc(Cl)cc1 [Example 39, 3-(p-Chlorophenyl)-4-(1-{[p-(trifluoromethyl)phenyl]methyl}-1H-pyrazol-4-yl)-2-pyridylamine] | < 50 |

Next, values leading:

| IC50 [nM] | Structure (SMILES) |
| --- | --- |
| < 50 | Nc1ncnc(-c2cnn(Cc3ccc(C(F)(F)F)cc3)c2)c1-c1ccc(F)c(F)c1 [Example 31, 5-(3,4-Difluorophenyl)-6-(1-{[p-(trifluoromethyl)phenyl]methyl}-1H-pyrazol-4-yl)-4-pyrimidinylamine] |
| < 50 | COc1ccc(-c2c(N)ncnc2-c2cnn(Cc3ccc(C(F)(F)F)cc3)c2)cc1F [Example 32, 5-(3-Fluoro-4-methoxyphenyl)-6-(1-{[p-(trifluoromethyl)phenyl]methyl}-1H-pyrazol-4-yl)-4-pyrimidinylamine] |
| 500 to 10000 | Nc1cc(-c2cnn(Cc3ccc(C(F)(F)F)cc3)c2)ccn1 [Example 36, 4-(1-{[p-(Trifluoromethyl)phenyl]methyl}-1H-pyrazol-4-yl)-2-pyridylamine] |
| 500 to 10000 | Nc1cc(-c2cnn(Cc3ccc(C(F)(F)F)cc3)c2)c(Cl)cn1 [Example 37, 5-Chloro-4-(1-{[p-(trifluoromethyl)phenyl]methyl}-1H-pyrazol-4-yl)-2-pyridylamine] |
